From publication PMC8938411, “Novel functional insights into a modified sugar-binding protein from Synechococcus MITS9220” (Scientific Reports, 2022) come the findings set out here.

The target of the test is T1, MsBP (modified sugar-binding protein, MITS9220_00117), zinc-bound Zn-MsBP.
T1 construct: Tat signal peptide removed, N-terminal hexahistidine tag with thrombin cleavage site (pET15-b)
In words: ITC of purified MsBP pre-incubated with Zn2+ ([…]x molar excess); supported by DSF (TM […] °C with Zn and FBP). Set-up: species or system Synechococcus sp. MIT S9220. A general note: Differential scanning fluorimetry follows unfolding on heating by fluorescence.

By Kd is commonly meant the constant that tells how readily two partners part at equilibrium. The low end stands for tighter binding, the high end for weaker binding. In the case of `O=P(O)(O)OC[C@H]1OC(O)(COP(=O)(O)O)[C@@H](O)[C@@H]1O` (stereo partly shown) [FBP, fructose-1,6-bisphosphate], the affinity, expressed as Kd, was 5.8 µM.
